# Measurements as given in patent US7411069B2 (Hypnion, Inc., priority 2003, dated 2008).
# What was measured:
# H1 histamine receptor = target: T1, H1 histamine receptor (Bos taurus, UniProt P30546); assay: H1 binding assay ([3H]pyrilamine displacement); design: species or system bovine; conditions: average N=2
# T1 construct: the receptors were obtained from bovine cerebellar membrane tissue; from tissue; host or cells: bovine cerebellar membranes
# M3 muscarinic receptor = target: T2, M3 muscarinic receptor (Homo sapiens, UniProt P20309); assay: M3 binding assay ([3H]-scopolamine, N-methyl chloride displacement); conditions: for % Inhibition, M3 / % Specific Binding, M3: average N=2
# T2 construct: purchased PerkinElmer, Inc., Wellesley, Mass; host or cells: CHO cells
# Histamine, H1 = Histamine, H1 (Bos taurus, UniProt P30546); assay: Binding specificity panel; conditions: 1.0E−6; average N=2
# Source text: The percentage inhibition (average; N=2) for these receptors is shown below in Table 12.
# Values in Table 12 are expressed as percentage inhibition of specific binding, and these values represent the average of replicate tubes at each of the concentrations tested.
# male Wistar rats = assay: SCORE-2000 sleep-wakefulness, locomotor activity and body temperature monitoring
# M1 muscarinic receptor = target: T3, M1 muscarinic receptor (Homo sapiens, UniProt P11229); assay: M1 binding assay ([3H]-scopolamine, N-methyl chloride displacement)
# T3 construct: purchased PerkinElmer, Inc., Wellesley, Mass; host or cells: CHO cells
# T3 sequence (P11229 1-460): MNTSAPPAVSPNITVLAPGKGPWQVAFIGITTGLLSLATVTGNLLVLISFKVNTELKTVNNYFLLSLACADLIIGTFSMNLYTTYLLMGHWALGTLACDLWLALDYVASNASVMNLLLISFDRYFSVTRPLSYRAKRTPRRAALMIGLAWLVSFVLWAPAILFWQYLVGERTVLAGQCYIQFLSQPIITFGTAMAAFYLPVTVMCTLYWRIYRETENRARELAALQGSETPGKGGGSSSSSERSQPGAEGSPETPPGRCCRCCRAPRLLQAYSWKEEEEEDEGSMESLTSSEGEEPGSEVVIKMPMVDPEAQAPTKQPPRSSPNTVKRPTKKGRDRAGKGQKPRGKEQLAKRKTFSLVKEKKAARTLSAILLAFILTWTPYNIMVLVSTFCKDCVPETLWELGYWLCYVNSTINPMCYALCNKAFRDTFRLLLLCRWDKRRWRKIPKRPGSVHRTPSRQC
# M2 muscarinic receptor = target: T4, M2 muscarinic receptor (Homo sapiens, UniProt P08172); assay: M2 binding assay ([3H]-scopolamine, N-methyl chloride displacement)
# T4 construct: purchased PerkinElmer, Inc., Wellesley, Mass; host or cells: CHO cells
# T4 sequence (P08172 1-466): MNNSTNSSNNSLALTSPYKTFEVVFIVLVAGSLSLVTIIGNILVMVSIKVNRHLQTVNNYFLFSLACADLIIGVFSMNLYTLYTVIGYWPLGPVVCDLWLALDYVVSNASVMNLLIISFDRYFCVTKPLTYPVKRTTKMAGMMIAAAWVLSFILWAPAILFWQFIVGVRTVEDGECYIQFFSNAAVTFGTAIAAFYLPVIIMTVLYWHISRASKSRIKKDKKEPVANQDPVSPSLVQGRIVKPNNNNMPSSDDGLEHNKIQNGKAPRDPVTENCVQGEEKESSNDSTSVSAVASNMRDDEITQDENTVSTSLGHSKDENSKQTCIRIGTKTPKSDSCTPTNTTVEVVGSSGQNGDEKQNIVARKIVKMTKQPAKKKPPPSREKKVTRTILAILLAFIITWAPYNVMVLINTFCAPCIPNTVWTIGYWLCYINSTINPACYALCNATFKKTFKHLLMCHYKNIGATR
# T1 sequence (P30546 whole entry): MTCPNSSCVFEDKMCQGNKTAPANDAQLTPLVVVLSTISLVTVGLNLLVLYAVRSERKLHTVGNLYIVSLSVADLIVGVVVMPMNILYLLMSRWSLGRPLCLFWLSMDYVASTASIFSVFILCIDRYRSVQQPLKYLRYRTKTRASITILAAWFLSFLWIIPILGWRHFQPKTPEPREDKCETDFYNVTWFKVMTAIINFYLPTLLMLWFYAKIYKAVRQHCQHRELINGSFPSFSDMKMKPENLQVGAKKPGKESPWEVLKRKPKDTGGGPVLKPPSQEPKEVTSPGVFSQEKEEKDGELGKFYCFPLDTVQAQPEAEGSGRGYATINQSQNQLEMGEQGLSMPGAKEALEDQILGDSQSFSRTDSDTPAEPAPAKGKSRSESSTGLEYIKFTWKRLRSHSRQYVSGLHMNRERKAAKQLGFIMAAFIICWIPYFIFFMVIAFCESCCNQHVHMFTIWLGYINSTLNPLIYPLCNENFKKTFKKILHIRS
# T2 sequence (P20309 whole entry): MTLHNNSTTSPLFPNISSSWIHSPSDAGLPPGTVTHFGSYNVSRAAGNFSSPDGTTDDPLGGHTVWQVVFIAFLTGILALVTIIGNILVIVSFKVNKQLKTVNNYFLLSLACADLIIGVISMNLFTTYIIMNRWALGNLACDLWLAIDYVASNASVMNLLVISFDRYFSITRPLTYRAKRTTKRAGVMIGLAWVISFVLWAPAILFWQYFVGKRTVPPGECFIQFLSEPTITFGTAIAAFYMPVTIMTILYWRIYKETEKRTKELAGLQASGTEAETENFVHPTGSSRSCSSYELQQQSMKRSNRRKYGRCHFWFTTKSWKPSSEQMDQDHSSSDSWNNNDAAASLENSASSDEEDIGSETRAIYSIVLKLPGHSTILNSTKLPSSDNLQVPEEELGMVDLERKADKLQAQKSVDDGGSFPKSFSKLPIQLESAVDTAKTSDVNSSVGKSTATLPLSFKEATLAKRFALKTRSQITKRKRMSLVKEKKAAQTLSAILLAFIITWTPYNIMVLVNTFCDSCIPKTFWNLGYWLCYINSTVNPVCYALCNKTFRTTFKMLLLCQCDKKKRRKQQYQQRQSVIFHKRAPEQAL
# Histamine, H1, sequence (P30546 whole entry): as the sequence (P30546 whole entry) above
compound,measurement,setting,value
CC(CC(=O)O)N1CCC(=C2c3ccc(F)cc3COc3ccccc32)CC1 (stereo not shown) [Compound 37],"% Inhibition, H1",H1 histamine receptor; concentration 1.0E−5,95.79%
same,"% Specific Binding, H1",H1 histamine receptor; concentration 1.0E−5,3.21%
same,"% Inhibition, H1",H1 histamine receptor; concentration 1.0E−6,93.75%
same,"% Specific Binding, H1",H1 histamine receptor; concentration 1.0E−6,6.25%
same,"% Inhibition, H1",H1 histamine receptor; concentration 1.0E−7,60.82%
same,"% Specific Binding, H1",H1 histamine receptor; concentration 1.0E−7,39.18%
same,"% Inhibition, H1",H1 histamine receptor; concentration 1.0E−8,8.60%
same,"% Specific Binding, H1",H1 histamine receptor; concentration 1.0E−8,91.40%
same,"% Inhibition, H1",H1 histamine receptor; concentration 1.0E−9,2.99%
same,"% Specific Binding, H1",H1 histamine receptor; concentration 1.0E−9,97.01%
same,"% Specific Binding, H1",H1 histamine receptor; concentration 3.0E−6,6.74%
same,"% Inhibition, H1",H1 histamine receptor; concentration 3.0E−7,81.03%
same,"% Specific Binding, H1",H1 histamine receptor; concentration 3.0E−7,18.97%
same,"% Inhibition, H1",H1 histamine receptor; concentration 3.0E−8,30.37%
same,"% Specific Binding, H1",H1 histamine receptor; concentration 3.0E−8,69.53%
same,"% Inhibition, M3",M3 muscarinic receptor; concentration 1.0E−5,4.27%
same,"% Specific Binding, M3",M3 muscarinic receptor; concentration 1.0E−5,95.73%
same,"% Inhibition, M3",M3 muscarinic receptor; concentration 1.0E−6,0.79%
same,"% Specific Binding, M3",M3 muscarinic receptor; concentration 1.0E−6,99.21%
same,"% Inhibition, M3",M3 muscarinic receptor; concentration 1.0E−7,5.85%
same,"% Specific Binding, M3",M3 muscarinic receptor; concentration 1.0E−7,93.15%
same,"% Inhibition, M3",M3 muscarinic receptor; concentration 1.0E−8,−8.34%
same,"% Specific Binding, M3",M3 muscarinic receptor; concentration 1.0E−8,108.34%
same,"% Inhibition, M3",M3 muscarinic receptor; concentration 1.0E−9,−0.65%
same,"% Specific Binding, M3",M3 muscarinic receptor; concentration 1.0E−9,100.65%
same,"% Specific Binding, M3",M3 muscarinic receptor; concentration 3.0E−6,94.59%
same,"% Specific Binding, M3",M3 muscarinic receptor; concentration 3.0E−7,94.45%
same,"% Inhibition, M3",M3 muscarinic receptor; concentration 3.0E−8,6.99%
same,"% Specific Binding, M3",M3 muscarinic receptor; concentration 3.0E−8,93.01%
same,percentage inhibition of specific binding,"Histamine, H1",23.13%
same,REM inhibition,male Wistar rats; 10 mg/kg,did not produce any
same,rebound insomnia,male Wistar rats; 10 mg/kg,did not produce any
same,reduction in body temperature,male Wistar rats; 10 mg/kg,no disproportional reduction
same,reduction in locomotor activity (LMA),male Wistar rats; 10 mg/kg,no disproportional reduction
same,"Cumulative NREM sleep time increase, adjusted for baseline and relative to vehicle","male Wistar rats; 10 mg/kg PO, CT-18",53 min
same,absolute average sleep bout,"male Wistar rats; 10 mg/kg PO, CT-18",9 min
same,"average sleep bout length increase, adjusted for baseline and relative to vehicle","male Wistar rats; 10 mg/kg PO, CT-18",5.3 min
same,peak NREM sleep time,"male Wistar rats; 10 mg/kg PO, CT-18",64 % per hour
same,body temperature,male Wistar rats; 30 mg/kg,unacceptable drop in body temperature
same,reduction in LMA,male Wistar rats; 30 mg/kg,no disproportional reduction
same,"Cumulative NREM sleep time increase, adjusted for baseline and relative to vehicle","male Wistar rats; 30 mg/kg PO, CT-18",62 min
same,absolute average sleep bout,"male Wistar rats; 30 mg/kg PO, CT-18",9 min
same,absolute longest sleep bout post-treatment,"male Wistar rats; 30 mg/kg PO, CT-18",25 min
same,"average sleep bout length increase, adjusted for baseline and relative to vehicle","male Wistar rats; 30 mg/kg PO, CT-18",5.6 min
same,peak NREM sleep time,"male Wistar rats; 30 mg/kg PO, CT-18",72 % per hour
same,REM inhibition,"male Wistar rats; 30 mg/kg, CT-18",did not produce any appreciable REM inhibition
CC(C)(CN1CCC(=C2c3ccccc3COc3ccccc32)CC1)C(=O)O [Compound 69a],Ki,M1 muscarinic receptor,> 10 µM
same,Ki,M2 muscarinic receptor,> 10 µM
same,Ki,M3 muscarinic receptor,> 10 µM
